From patent publication US6849656B1, “Indole-containing and combretastatin-related anti-mitotic and anti-tubulin polymerization agents” (Baylor University, priority 1999, dated 2005)
≈ marks a conversion by molar mass, not a printed value. Where two headings read alike, the source gives them in different places.

What was measured:
FADU (Pharynx-sqam) = experiment: Growth inhibition of human cancer cell line FADU; assay type: cell-based; settings: Table I
BXPC-3 (Pancreas-a) = experiment: Growth inhibition of human cancer cell line BXPC-3; assay type: cell-based
Protocol: (§1) 3-(3′,4′,5′-Trimethoxybenzoyl)-2-(4′-methoxyphenyl)-6-methoxyindole was evaluated in terms of growth inhibitory activity against several human cancer cell lines, including pancreas, ovarian, CNS, lung-NSC, colon, and prostate lines. The assay used is described in Monks et al. Briefly, the cell suspensions, diluted according to the particular cell type and the expected target cell density (5,000-40,000 cells per well based on cell growth characteristics), were added by pipet (100 μl) to 96-well microtiter plates. Inoculates were allowed a preincubation time of24-28 hours at 37° C. for stabilization. Incubation with the inhibitor compounds lasted for 48 hours in 5% CO2 atmosphere and 100% humidity. Determination of cell growth was done by in situ fixation of cells, followed by staining with a protein-binding dye, sulforhodamine B (SRB), which binds to the basic amino acids of cellular macromolecules. The solubilized stain was measured spectrophotometrically. G150 is defined as the dosage required to inhibit tumor cell growth by 50%.

SW1736 (Thyroid ca) = experiment: Growth inhibition of human cancer cell line SW1736; assay type: cell-based; settings: SW-1736, SW1736, Table I
DU-145 (Prostate) = experiment: Growth inhibition of human cancer cell line DU-145; assay type: cell-based
Protocol: as §1

NCI-H460 (Lung-NSC) [1] = experiment: cells; assay type: cell-based
Protocol: as §1

SK-N-SH (Neuroblast) = experiment: Growth inhibition of human cancer cell line SK-N-SH; assay type: cell-based; settings: Table I
KM20L2 (Colon) [2] = settings: data from synthesis of phenstatin phosphate (Pettit); cited from earlier work
OVCAR-3 (Ovarian) [3] = settings: data from synthesis of phenstatin phosphate (Pettit); cited from earlier work
purified tubulin [4] = settings: reported by Pettit and co-workers, cited from earlier work; for IC50: read-out: IC50 for inhibition of tubulin polymerization
SF-295 (CNS) [5] = settings: data from synthesis of phenstatin phosphate (Pettit); cited from earlier work
NCI-H460 (Lung-NSC) [6] = settings: data from synthesis of phenstatin phosphate (Pettit); cited from earlier work
SF-295 (CNS) [7] = experiment: Growth inhibition of human cancer cell line SF-295; assay type: cell-based
Protocol: as §1

OVCAR-3 (Ovarian) [8] = experiment: Growth inhibition of human cancer cell line OVCAR-3; assay type: cell-based
Protocol: as §1

P388 leukemia cells = experiment: Cytotoxic assay with P388 leukemia cells; assay type: cell-based
purified tubulin [9] = system: T1, purified tubulin; experiment: Inhibition of tubulin polymerization assay; assay type: biochemical, bovine
T1 construct: other: at 4 pM
Protocol: IC50 values for tubulin polymerization were determined according to the procedure described in Bai et al. Purified tubulin is obtained from bovine brain cells as described in Hamel and Lin. Various amounts of inhibitor were preincubated for 15 minutes at 37° C. with purified tubulin. After the incubation period, the reaction was cooled and GTP was added to induce tubulin polymerization. Polymerization was then monitored in a Gilford spectrophotometer at 350 nm. The final reaction mixtures (0.25 ml) contained 1.5 mg/ml tubulin, 0.6 mg/ml microtubule-associated proteins (MAPs), 0.5 mM GTP, […], 4% DMSO and 0.1M 4-morpholineethanesulfonate buffer (MES, pH 6.4). IC50 is the amount of inhibitor needed to inhibit tubulin polymerization 50% with respect to the amount of […] that occurs in the absence of inhibitor.

KM20L2 (Colon) [10] = experiment: Growth inhibition of human cancer cell line KM20L2; assay type: cell-based
Protocol: as §1

[11] = read-out: IC50 for inhibition of tubulin polymerization

COc1ccc(-c2c(C(=O)c3cc(OC)c(OC)c(OC)c3)oc3cc(OC)ccc23)cc1 [2-(3′,4′,5′-trimethoxybenzoyl)-3-(4′-methoxyphenyl)-6-methoxybenzo[b]furan, reference compound]
GI50 (FADU (Pharynx-sqam)): 0.035 µg/mL (≈ 0.078 µM) | GI50 (BXPC-3 (Pancreas-a); Homo sapiens, BXPC-3, Table I, read-out: GI50): 0.038 µg/mL (≈ 0.0847 µM) | GI50 (SW1736 (Thyroid ca)): 0.047 µg/mL (≈ 0.105 µM) | GI50 (DU-145 (Prostate); Homo sapiens, DU-145, Table I, read-out: GI50): 0.062 µg/mL (≈ 0.138 µM) | GI50 (NCI-H460 (Lung-NSC) [1]; Homo sapiens, NCI-H460, Table I, read-out: GI50): 41 ng/mL (≈ 0.0914 µM) | GI50 (SK-N-SH (Neuroblast)): 0.025 µg/mL (≈ 0.0557 µM)

COc1ccc(C(=O)c2cc(OC)c(OC)c(OC)c2)cc1O [Phenstatin, phenstatin]
GI50 (KM20L2 (Colon) [2]): 0.0004 µg/mL (≈ 0.00126 µM) | GI50 (OVCAR-3 (Ovarian) [3]): 2.3 ng/mL (≈ 0.00723 µM) | IC50 (purified tubulin [4]): 1000 ± 200 nM | GI50 (SF-295 (CNS) [5]): 0.052 µg/mL (≈ 0.163 µM) | GI50 (NCI-H460 (Lung-NSC) [6]): 0.0057 µg/mL (≈ 0.0179 µM)

CCOP(=O)(Nc1cc(/C=C\c2cc(OC)c(OC)c(OC)c2)ccc1OC)OCC [Phosphoramidate Analog 10, (Z)-1-(3′-Diethylphosphoramidate-4′-methoxyphenyl)-2-(3″,4″,5″-trimethoxyphenyl)ethene]
GI50 (SF-295 (CNS) [7]; SF-295): 240 ng/mL (≈ 0.532 µM) | LC50 (SF-295 (CNS) [7]; SF-295): >10 µg/mL | TGI (SF-295 (CNS) [7]; SF-295): >10 µg/mL | GI50 (BXPC-3 (Pancreas-a); BXPC-3): 0.15 µg/mL (≈ 0.332 µM) | LC50 (BXPC-3 (Pancreas-a); BXPC-3): >10 µg/mL | TGI (BXPC-3 (Pancreas-a); BXPC-3): 0.57 µg/mL (≈ 1.26 µM) | GI50 (OVCAR-3 (Ovarian) [8]; OVCAR-3): 190 ng/mL (≈ 0.421 µM) | LC50 (OVCAR-3 (Ovarian) [8]; OVCAR-3): >10 µg/mL | TGI (OVCAR-3 (Ovarian) [8]; OVCAR-3): 0.86 µg/mL (≈ 1.9 µM) | GI50 (DU-145 (Prostate); DU-145): 0.26 µg/mL (≈ 0.576 µM) | LC50 (DU-145 (Prostate); DU-145): >10 µg/mL | TGI (DU-145 (Prostate); DU-145): 0.26 µg/mL (≈ 0.576 µM) | GI50 (P388 leukemia cells; P388): 0.31 µg/mL (≈ 0.687 µM) | GI50 (NCI-H460 (Lung-NSC) [1]; NCI-H460): 350 ng/mL (≈ 0.775 µM) | LC50 (NCI-H460 (Lung-NSC) [1]; NCI-H460): >10 µg/mL | TGI (NCI-H460 (Lung-NSC) [1]; NCI-H460): >10 µg/mL | activity in inhibition of tubulin polymerization (purified tubulin [9]): little if any activity | GI50 (KM20L2 (Colon) [10]; KM20L2): 280 ng/mL (≈ 0.62 µM) | LC50 (KM20L2 (Colon) [10]; KM20L2): >10 µg/mL | TGI (KM20L2 (Colon) [10]; KM20L2): 0.61 µg/mL (≈ 1.35 µM)

COc1ccc(-c2[nH]c3cc(OC)ccc3c2C(=O)c2cc(OC)c(OC)c(OC)c2)cc1 [3-(3′,4′,5′-trimethoxybenzoyl)-2-(4′-methoxyphenyl)-6-methoxyindole]
IC50 (purified tubulin [9]; [11]): 500 to 1500 nM

COc1ccc(/C=C\c2cc(OC)c(OC)c(OC)c2)cc1OP(=O)(O)O [Combretastatin A-4 Prodrug]
GI50 (KM20L2 (Colon) [2]): 0.34 µg/mL (≈ 0.858 µM) | GI50 (OVCAR-3 (Ovarian) [3]): 23 ng/mL (≈ 0.058 µM) | inhibition of tubulin polymerization (purified tubulin [4]): no inhibition | IC50 (purified tubulin [4]): > 80000 nM | GI50 (SF-295 (CNS) [5]): 0.036 µg/mL (≈ 0.0908 µM) | GI50 (NCI-H460 (Lung-NSC) [6]): 0.029 µg/mL (≈ 0.0732 µM)

COc1ccc(C(=O)c2cc(OC)c(OC)c(OC)c2)cc1OP(=O)(O)O [Phenstatin Prodrug]
GI50 (KM20L2 (Colon) [2]): 0.27 µg/mL (≈ 0.678 µM) | GI50 (OVCAR-3 (Ovarian) [3]): 2.5 ng/mL (≈ 0.00628 µM) | activity in inhibition of tubulin polymerization compared to phenstatin (purified tubulin [4]): 40% | IC50 (purified tubulin [4]): 21000 ± 3000 nM | GI50 (SF-295 (CNS) [5]): 0.012 µg/mL (≈ 0.0301 µM) | GI50 (NCI-H460 (Lung-NSC) [6]): 0.035 µg/mL (≈ 0.0879 µM)

COc1ccc(-c2[nH]c3cc(OC)ccc3c2C(=O)c2cc(OC)c(OC)c(OC)c2)cc1 [Indole-based Ligand 33, 3-(3′,4′,5′-trimethoxybenzoyl)-2-(4′-methoxyphenyl)-6-methoxyindole]
GI50 (SF-295 (CNS) [7]; Homo sapiens, SF-295, 48 hours, SRB, read-out: GI50): 2.4 ng/mL (≈ 0.00536 µM) | GI50 (BXPC-3 (Pancreas-a); Homo sapiens, BXPC-3, 48 hours, SRB, read-out: GI50): 0.002 µg/mL (≈ 0.00447 µM) | GI50 (OVCAR-3 (Ovarian) [8]; Homo sapiens, OVCAR-3, 48 hours, SRB, read-out: GI50): 2.4 ng/mL (≈ 0.00536 µM) | GI50 (DU-145 (Prostate); Homo sapiens, DU-145, 48 hours, SRB, read-out: GI50): 0.0023 µg/mL (≈ 0.00514 µM) | ED50 (effective dosage required to inhibit 50% of cell growth) (P388 leukemia cells; P388 leukemia cells): 0.0133 µg/mL | GI50 (NCI-H460 (Lung-NSC) [1]; Homo sapiens, NCI-H460, 48 hours, SRB, read-out: GI50): 2.6 ng/mL (≈ 0.00581 µM) | GI50 (KM20L2 (Colon) [10]; Homo sapiens, KM-20L2, KM20L2, 48 hours, SRB, read-out: GI50): 1.7 ng/mL (≈ 0.0038 µM)

COc1ccc(/C=C\c2cc(OC)c(OC)c(OC)c2)cc1N [Amine-CA-4 8]
GI50 (NCI-H460 (Lung-NSC) [1]; Homo sapiens, NCI-H460, read-out: GI50): 0.68 ng/mL (≈ 0.00216 µM) | IC50 (purified tubulin [9]; [11]): 1200 ± 20 nM
